Laboratory results taken from US9102678B2, “Compounds and methods for inhibiting mitotic progression” (Millennium Pharmaceuticals, Inc., priority 2004, dated 2015).

These molecules were tested against T1, recombinant murine Aurora A enzyme (Mus musculus, UniProt P97477) (assay: Aurora A DELFIA Kinase Assay). Details: mouse Aurora A, 250 μM ATP; threshold less than or equal to 100 nM; read-out: IC50.
T1 construct: hexahistidine (His6) (N); made in house; host or cells: insect cells, baculovirus (Bac-to-Bac, Invitrogen)
T1 sequence (P97477 whole entry): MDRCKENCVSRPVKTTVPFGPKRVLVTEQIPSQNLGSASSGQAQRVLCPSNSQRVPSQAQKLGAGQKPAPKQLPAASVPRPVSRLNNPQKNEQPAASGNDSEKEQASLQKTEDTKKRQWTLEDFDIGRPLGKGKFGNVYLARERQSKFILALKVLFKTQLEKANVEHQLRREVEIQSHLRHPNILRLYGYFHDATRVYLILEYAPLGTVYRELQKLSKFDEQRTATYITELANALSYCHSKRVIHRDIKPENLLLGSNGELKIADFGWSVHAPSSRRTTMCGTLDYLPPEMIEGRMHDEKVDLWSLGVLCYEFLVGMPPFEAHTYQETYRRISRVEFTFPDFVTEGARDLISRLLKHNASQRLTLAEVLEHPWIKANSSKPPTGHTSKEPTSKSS
Format: biochemical
Excerpt: Recombinant mouse Aurora A with an amino-terminus hexahistidine tag (His-Aurora A) was expressed using a standard baculovirus vector and insect cell expression system (Bac-to-Bac®, Invitrogen).
Soluble, recombinant mouse Aurora A was purified from insect cells using Ni-NTA agarose (Qiagen) as described by the manufacturer and further purified over an S75 size exclusion column (Amersham Pharmacia Biotech).
Aurora A DELFIA® Kinase Assay
The enzymatic reaction mixture, with and without Aurora inhibitors, was incubated for 15 minutes at room temperature before termination with 100 μL of stop buffer (1% BSA, 0.05% Surfact-AMPS-20, and 100 mM EDTA). A total of 100 μL of the enzyme reaction mixture was transferred to wells of a Neutravidin-coated 96-well plate (Pierce) and incubated at room temperature for 30 minutes. The wells were washed with wash buffer (25 mM Tris, 150 mM sodium chloride, and 0.1% Tween 20) and incubated for 1 hour with 100 μL of antibody reaction mixture containing 1% BSA, 0.05% Surfact-AMPS-20, anti-phospho-PKA rabbit polyclonal antibody (1:2000, New England Biolabs), and europium labeled anti-rabbit IgG (1:2000, Perkin Elmer). The wells were washed and then the bound europium was liberated using 100 μL of Enhancement Solution (Perkin Elmer). Quantification of europium was done using a Wallac™ EnVision (Perkin Elmer).

IC50, ≤ 100 nM:
CNC1CCN(C(=O)c2ccc(Nc3ncc4c(n3)-c3ccc(Cl)cc3C(c3c(F)cccc3OC)=NC4)cc2)CC1 [Compound I-242, 9-chloro-7-(2-fluoro-6-methoxyphenyl)-N-(4-{[4-(methylamino)piperidin-1-yl]carbonyl}phenyl)-5H-pyrimido[5,4-d][2]benzazepin-2-amine]
CN(C)C1CCN(C(=O)c2ccc(Nc3ncc4c(n3)-c3ccc(Cl)cc3C(c3c(F)cccc3F)=NC4)cc2)C1 (stereo not drawn) [Compound I-176, 9-Chloro-7-(2,6-difluorophenyl)-N-(4-{[3-(dimethylamino)pyrrolidin-1-yl]carbonyl}phenyl)-5H-pyrimido[5,4-d][2]benzazepin-2-amine]
CNC1CCN(C(=O)c2ccc(Nc3ncc4c(n3)-c3ccc(Cl)cc3C(c3c(F)cccc3OC)=NC4)cc2)C1 (stereo not drawn) [Compound I-199, {4-[9-Chloro-7-(2-fluoro-6-methoxy-phenyl)-5H-benzo[c]pyrimido[4,5-e]azepin-2-ylamino]-phenyl}-(3-methylamino-pyrrolidin-1-yl)-methanone]
O=C(c1ccc(Nc2ncc3c(n2)-c2ccc(Cl)cc2C(c2ccccc2F)=NC3)cc1Cl)N1CCN(CCN2CCCC2)CC1 [Compound I-213, 9-chloro-N-(3-chloro-4-{[4-(2-pyrrolidin-1-ylethyl)piperazin-1-yl]carbonyl}phenyl)-7-(2-fluorophenyl)-5H-pyrimido[5,4-d][2]benzazepin-2-amine]
CC1CN(C(=N)NC(=O)c2ccc(Nc3ncc4c(n3)-c3ccc(Cl)cc3C(c3c(F)cccc3F)=NC4)cc2)CC(C)N1 (stereo not drawn) [Compound I-238, 4-{[9-chloro-7-(2,6-difluorophenyl)-5H-pyrimido[5,4-d][2]benzazepin-2-yl]amino}-N-[(3,5-dimethylpiperazin-1-yl)(imino)methyl]benzamide]
CNCCNC(=O)c1ccc(Nc2ncc3c(n2)-c2ccc(Cl)cc2C(c2ccccc2F)=NC3)cc1 [Compound I-1, 4-[9-Chloro-7-(2-fluoro-phenyl)-5H-benzo[c]pyrimido[4,5-e]azepin-2-ylamino]-N-(2-methylamino-ethyl)-benzamide]
COc1cccc(F)c1C1=NCc2cnc(Nc3ccc(C(=O)O)cc3)nc2-c2ccc(Cl)cc21 [Compound I-190, 4-[9-Chloro-7-(2-fluoro-6-methoxy-phenyl)-5H-benzo[c]pyrimido[4,5-e]azepin-2-ylamino]-benzoic acid]
NC1CCN(C(=O)c2ccc(Nc3ncc4c(n3)-c3ccc(Cl)cc3C(c3ccccn3)=NC4)cc2)CC1 [Compound I-298, N-{4-[(4-aminopiperidin-1-yl)carbonyl]phenyl}-9-chloro-7-pyridin-2-yl-5H-pyrimido[5,4-d][2]benzazepin-2-amine]
CCOC(=O)C(N)CCNC(=O)c1ccc(Nc2ncc3c(n2)-c2ccc(Cl)cc2C(c2c(F)cccc2F)=NC3)cc1 (stereo not drawn) [Compound I-300, ethyl 2-amino-4-[(4-{[9-chloro-7-(2,6-difluorophenyl)-5H-pyrimido[5,4-d][2]benzazepin-2-yl]amino}benzoyl)amino]butanoate]
NC1CCN(C(=O)c2cc(Nc3ncc4c(n3)-c3ccc(Cl)cc3C(c3c(F)cccc3F)=NC4)ccc2Cl)CC1 [Compound I-292, N-{3-[(4-aminopiperidin-1-yl)carbonyl]-4-chlorophenyl}-9-chloro-7-(2,6-difluorophenyl)-5H-pyrimido[5,4-d][2]benzazepin-2-amine]
O=C(O)C1CNCCN1C(=O)c1ccc(Nc2ncc3c(n2)-c2ccc(Cl)cc2C(c2c(F)cccc2F)=NC3)cc1 (stereo not drawn) [Compound I-219, 1-(4-{[9-chloro-7-(2,6-difluorophenyl)-5H-pyrimido[5,4-d][2]benzazepin-2-yl]amino}benzoyl)piperazine-2-carboxylic acid]
NC1CCN(C(=O)c2ccc(Nc3ncc4c(n3)-c3ccc(Cl)cc3C(c3ccccc3F)=NC4)cc2)C1 (stereo not drawn) [Compound I-103, (3-Amino-pyrrolidin-1-yl)-{4-[9-chloro-7-(2-fluoro-phenyl)-5H-benzo[c]pyrimido[4,5-e]azepin-2-ylamino]-phenyl}-methanone]
CNC1CN(C(=O)c2ccc(Nc3ncc4c(n3)-c3ccc(Cl)cc3C(c3c(F)cccc3OC)=NC4)cc2)C1 [Compound I-235, 9-chloro-7-(2-fluoro-6-methoxyphenyl)-N-(4-{[3-(methylamino)azetidin-1-yl]carbonyl}phenyl)-5H-pyrimido[5,4-d][2]benzazepin-2-amine]
C[C@@H]1CNCCN1C(=O)c1ccc(Nc2ncc3c(n2)-c2ccc(Cl)cc2C(c2c(F)cccc2F)=NC3)cc1 [Compound I-366, 9-chloro-7-(2,6-difluorophenyl)-N-(4-{[(2R)-2-methylpiperazin-1-yl]carbonyl}phenyl)-5H-pyrimido[5,4-d][2]benzazepin-2-amine]
CCOC(=O)[C@@H](CCN)NC(=O)c1ccc(Nc2ncc3c(n2)-c2ccc(Cl)cc2C(c2c(F)cccc2F)=NC3)cc1 [Compound I-309, ethyl (2R)-4-amino-2-[(4-{[9-chloro-7-(2,6-difluorophenyl)-5H-pyrimido[5,4-d][2]benzazepin-2-yl]amino}benzoyl)amino]butanoate]
CN1CCN(C(=O)c2ccc(Nc3ncc4c(n3)-c3ccc(Cl)cc3C(c3ccccc3Cl)=NC4)cc2)CC1 [Compound I-10, {4-[9-Chloro-7-(2-chloro-phenyl)-5H-benzo[c]pyrimido[4,5-e]azepin-2-ylamino]-phenyl}-(4-methyl-piperazin-1-yl)-methanone]
Cc1ccccc1C1=NCc2cnc(Nc3ccc(C(=O)N4CCN(C)CC4)cc3)nc2-c2ccc(Cl)cc21 [Compound I-11, [4-(9-Chloro-7-o-tolyl-5H-benzo[c]pyrimido[4,5-e]azepin-2-ylamino)-phenyl]-(4-methyl-piperazin-1-yl)-methanone]
NC1CN(C(=O)c2ccc(Nc3ncc4c(n3)-c3ccc(Cl)cc3C(c3c(F)cccc3F)=NC4)cc2)C1 [Compound I-278, N-{4-[(3-aminoazetidin-1-yl)carbonyl]phenyl}-9-chloro-7-(2,6-difluorophenyl)-5H-pyrimido[5,4-d][2]benzazepin-2-amine]
CN(C)CCCN(C)C(=O)c1ccc(Nc2ncc3c(n2)-c2ccc(Cl)cc2C(c2ccccc2F)=NC3)cc1 [Compound I-7, 4-[9-Chloro-7-(2-fluoro-phenyl)-5H-benzo[c]pyrimido[4,5-e]azepin-2-ylamino]-N-(3-dimethylamino-propyl)-N-methyl-benzamide]
COc1ccccc1C1=NCc2cnc(Nc3ccc(C(=O)NCCCN4CCOCC4)cc3)nc2-c2ccc(Cl)cc21 [Compound I-32, 4-[9-Chloro-7-(2-methoxy-phenyl)-5H-benzo[c]pyrimido[4,5-e]azepin-2-ylamino]-N-(3-morpholin-4-yl-propyl)-benzamide]
CNC1CCN(C(=O)c2csc(Nc3ncc4c(n3)-c3ccc(Cl)cc3C(c3c(F)cccc3F)=NC4)n2)C1 (stereo not drawn) [Compound I-367, 9-chloro-7-(2,6-difluorophenyl)-N-(4-{[3-(methylamino)pyrrolidin-1-yl]carbonyl}-1,3-thiazol-2-yl)-5H-pyrimido[5,4-d][2]benzazepin-2-amine]
CN(C)C1CCN(C(=N)c2ccc(Nc3ncc4c(n3)-c3ccc(Cl)cc3C(c3c(F)cccc3F)=NC4)cc2)C1 (stereo not drawn) [Compound I-250, 9-chloro-7-(2,6-difluorophenyl)-N-{4-[[3-(dimethylamino)pyrrolidin-1-yl](imino)methyl]phenyl}-5H-pyrimido[5,4-d][2]benzazepin-2-amine]
CNCCN(C)C(=O)c1cc(Nc2ncc3c(n2)-c2ccc(Cl)cc2C(c2c(F)cccc2F)=NC3)ccc1Cl [Compound I-283, 2-chloro-5-{[9-chloro-7-(2,6-difluorophenyl)-5H-pyrimido[5,4-d][2]benzazepin-2-yl]amino}-N-methyl-N-[2-(methylamino)ethyl]benzamide]
O=C(c1ccc(Nc2ncc3c(n2)-c2ccc(Cl)cc2C(c2ccccc2Cl)=NC3)cc1)N1CCOCC1 [Compound I-28, {4-[9-Chloro-7-(2-chloro-phenyl)-5H-benzo[c]pyrimido[4,5-e]azepin-2-ylamino]-phenyl}-morpholin-4-yl-methanone]
CNC1CCN(C(=O)c2cc(Nc3ncc4c(n3)-c3ccc(Cl)cc3C(c3c(F)cccc3F)=NC4)ccc2Cl)C1 (stereo not drawn) [Compound I-281, 9-chloro-N-(4-chloro-3-{[3-(methylamino)pyrrolidin-1-yl]carbonyl}phenyl)-7-(2,6-difluorophenyl)-5H-pyrimido[5,4-d][2]benzazepin-2-amine]
COC(=O)C1(N)CCN(C(=O)c2ccc(Nc3ncc4c(n3)-c3ccc(Cl)cc3C(c3c(F)cccc3F)=NC4)cc2)CC1 [Compound I-294, methyl 4-amino-1-(4-{[9-chloro-7-(2,6-difluorophenyl)-5H-pyrimido[5,4-d][2]benzazepin-2-yl]amino}benzoyl)piperidine-4-carboxylate]
COc1cccc(F)c1C1=NCc2cnc(Nc3ccc(C(=O)N4CCC(N)C4)cc3)nc2-c2ccc(Cl)cc21 (stereo not drawn) [Compound I-240]
